Legend:
[1] = tested on: TC-71 (Ewing's sarcoma) cells; test: cells; settings: Homo sapiens, TC-71, 72 h, read-out: EC50 on TC-71 cells
Description: Cell Proliferation Assays
Published scientific data has described that interference with the Insulin-like Growth Factor-1 Receptor (IGF-1R) signaling pathway reduces the proliferation of TC-71 cells. Therefore TC-71 cells served as a positive control cell line for monitoring the activity of compounds against IGF-1R-mediated cell proliferation.
2000 TC-71 cells or 1000 HCT 116 cells were seeded per well in 180 μL IMDM+10% foetal calf serum (FCS)+penicillin/streptomycin into 96-well microtitre plates. The plates were placed in a cell culture incubator (37° C. in a humidified atmosphere of 95% […]/5 CO2) overnight. The following day, serial dilutions of compounds, prepared in duplicates, were transferred onto the cell layers (controls without compound). The cells were cultivated for a further 72 h in the cell culture incubator. 20 μL of Alamar Bluet™ (Serotec Ltd, Düsseldorf, Germany) was added to each well and the plates incubated for 7 h in the cell culture incubator.

[2] = molecular target: cytoplasmic kinase domain of human IGF-1R (IGF-1R-GST) (Homo sapiens (Human), UniProt P08069); test: Insulin-like growth factor-1 receptor (IGF-1R)-kinase assay (DELFIA); format: biochemical; settings: inhibition of IGF-1R-kinase activity, read-out: IGF1R IC50
Description: Insulin-Like Growth Factor-1 Receptor (IGF-1R)-Kinase Assay
The kinase activity is measured by DELFIA® assay (dissociation-enhanced lanthanide fluorescence immunoassay, Perkin Elmer). […] Enzyme activity is measured in the presence of substances and a control substance. Poly-glutamate-tyrosine peptide (pEY, Sigma Aldrich) and biotinylated pEY (bio-pEY) are used as reaction substrates.
After 40 min at RT the reactions are stopped with 50 μL of stop solution (250 mM EDTA, 20 mM HEPES pH 7.4). 90 μL from each reaction are transferred onto streptavidin-coated 96-well plates. After 120 min incubation at RT the plates are washed three times with 200 μL phosphate-buffered saline (PBS) per well. The plates are incubated for 60 min with 100 μL of europium-coupled antibody against phospho-tyrosine (diluted 1/2000 in Perkin Elmer DELFIA assay buffer) per well. The plates are washed three times with 200 μL per well of DELFIA washing buffer. 100 μL DELFIA Enhancement Solution (Perkin Elmer) is added to each well, and the plates are incubated for 10 min. The fluorescence signal is measured with a Wallac Victor TRF Reader. IC50 values for the inhibition of the IGF-1R-kinase activity are calculated using the programmes Fifty (Version 2) and GraphPad (Version 3.0).

Sequence of cytoplasmic kinase domain of human IGF-1R (IGF-1R-GST) (P08069 964-1367 limits assumed): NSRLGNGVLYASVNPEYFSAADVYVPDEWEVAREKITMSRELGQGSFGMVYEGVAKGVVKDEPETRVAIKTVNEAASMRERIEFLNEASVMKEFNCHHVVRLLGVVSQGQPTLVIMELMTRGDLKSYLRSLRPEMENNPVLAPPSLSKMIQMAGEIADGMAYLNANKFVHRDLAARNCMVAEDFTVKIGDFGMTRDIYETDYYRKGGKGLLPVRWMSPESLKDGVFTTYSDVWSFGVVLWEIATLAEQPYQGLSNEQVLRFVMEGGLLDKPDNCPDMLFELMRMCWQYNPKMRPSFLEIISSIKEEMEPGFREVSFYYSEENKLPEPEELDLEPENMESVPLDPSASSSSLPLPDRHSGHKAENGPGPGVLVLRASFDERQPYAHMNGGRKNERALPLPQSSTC

`Cc1cccc(-c2c3c(nn2C)CCc2cnc(Nc4ccccc4)nc2-3)c1Cl` [Compound I-147] gave an EC50 [1] of less than 3000 nM.

`CCn1ccc(Nc2ncc3c(n2)-c2c(nn(C)c2-c2cccc(OC)c2)CC3)n1` [Compound I-293] gave an EC50 [1] of less than 3000 nM.

`COCCn1ccc(Nc2ncc3c(n2)-c2c(nn(C)c2-c2ccc(Cl)cc2)CC3)n1` [Compound I-171, 9-(4-chlorophenyl)-N-[1-(2-methoxyethyl)pyrazol-3-yl]-8-methyl-5,6-dihydropyrazolo[3,4-h]quinazolin-2-amine] gave an EC50 [1] of less than 3000 nM.

Molecule `Cn1nccc1Nc1ncc2c(n1)-c1c(nn(C)c1-c1ccccc1Cl)CC2` [Compound I-23] has an EC50 [1] of less than 3000 nM.

With `CC1Cc2nn(C)c(-c3ccccc3Cl)c2-c2nc(Nc3ccn(C)n3)ncc21` (racemic) [Compound I-42, 9-(2-chlorophenyl)-5,8-dimethyl-N-(1-methylpyrazol-3-yl)-5,6-dihydropyrazolo[3,4-h]quinazolin-2-amine] the EC50 [1] was less than 3000 nM.

In the case of `CC1Cc2nn(C)c(Cc3ccccc3Cl)c2-c2nc(Nc3cnn(C4CCN(CCO)CC4)c3)ncc21` (stereo not drawn) [IV-9c], the EC50 [1] is reported as less than 3000 nM.

`COc1cc(N2CCN(C)CC2)ccc1Nc1ncc2c(n1)-c1c(nn(C)c1-c1ccccc1Cl)CC2C` (racemic) [Compound I-97, 9-(2-chlorophenyl)-N-[2-methoxy-4-(4-methylpiperazin-1-yl)phenyl]-5,8-dimethyl-5,6-dihydropyrazolo[3,4-h]quinazolin-2-amine] gave an EC50 [1] of less than 3000 nM.

`COc1cc(C(=O)NC2CCN(C)CC2)ccc1Nc1ncc2c(n1)-c1c(nn(C)c1-c1ccccc1Cl)CC2` [Compound I-112, 4-[[9-(2-chlorophenyl)-8-methyl-5,6-dihydropyrazolo[3,4-h]quinazolin-2-yl]amino]-3-methoxy-N-(1-methylpiperidin-4-yl)benzamide] gave an EC50 [1] of less than 3000 nM.

With `Cc1cc(Nc2ncc3c(n2)-c2c(nn(C)c2-c2ccccc2Cl)CC3)nn1C` [Compound I-109] the EC50 [1] was less than 3000 nM.

`COC(=O)c1ccc(Nc2ncc3c(n2)-c2c(nn(C)c2-c2ccccc2Cl)CC3)c(OC)c1` [Compound I-3] gave an EC50 [1] of less than 3000 nM.

For `Cc1ccsc1-c1c2c(nn1C)CCc1cnc(Nc3ccn(CCN(C)C)n3)nc1-2` [Compound I-189, N-[1-(2-dimethylaminoethyl)pyrazol-3-yl]-8-methyl-9-(3-methylthiophen-2-yl)-5,6-dihydropyrazolo[3,4-h]quinazolin-2-amine], the EC50 [1] was less than 3000 nM.

For `COc1cc(C(=O)O)ccc1Nc1ncc2c(n1)-c1c(nn(C)c1-c1ccccc1Cl)CC2` [II-18], the EC50 [1] was less than 3000 nM.

In the case of `COc1cc(C(=O)NC2CCN(C)CC2)ccc1Nc1ncc2c(n1)-c1c(nn(C)c1-c1sccc1C)CC2` [III-105], the EC50 [1] is reported as less than 3000 nM.

Work on `CC1Cc2nn(C)c(Cc3ccccc3Cl)c2-c2nc(Nc3cnn(C4CCNCC4)c3)ncc21` (racemic) [IV-2a] yielded an EC50 [1] of less than 3000 nM.

`CC(=O)N1CCC(N2CCC(n3cc(Nc4ncc5c(n4)-c4c(nn(C)c4Cc4ccccc4Cl)CC5C)cn3)CC2)CC1` (stereo not drawn) [IV-9b] was tested, and the EC50 [1] was less than 3000 nM.

`CCn1ccc(Nc2ncc3c(n2)-c2c(nn(C)c2-c2sccc2C)CC3)n1` [Compound I-172] was tested, and the EC50 [1] was less than 3000 nM.

With `CCn1ccc(Nc2ncc3c(n2)-c2c(nn(C)c2-c2ccccc2Cl)CC3)n1` [Compound I-30, 9-(2-chlorophenyl)-N-(1-ethylpyrazol-3-yl)-8-methyl-5,6-dihydropyrazolo[3,4-h]quinazolin-2-amine] the EC50 [1] was less than 3000 nM.

Work on `CCOc1cc(C(=O)NC)ccc1Nc1ncc2c(n1)-c1c(nn(C)c1-c1ccccc1)CC2` [III-3] yielded an IC50 [2] of 92 nM.

`COc1cc(C(=O)NC2CCN(C)CC2)ccc1Nc1ncc2c(n1)-c1c(nn(C)c1Cc1c(Cl)cccc1Cl)CC2` [III-107] was tested, and the EC50 [1] was less than 3000 nM.

In the case of `COc1cc(C(=O)NC2CCN(C)CC2)ccc1Nc1ncc2c(n1)-c1c(nn(C)c1-c1ccccc1Cl)CC2C` (racemic) [Compound I-157, 4-[[9-(2-chlorophenyl)-5,8-dimethyl-5,6-dihydropyrazolo[3,4-h]quinazolin-2-yl]amino]-3-methoxy-N-(1-methylpiperidin-4-yl)benzamide], the EC50 [1] is reported as less than 3000 nM.

Work on `CC1Cc2nn(C)c(Cc3ccccc3Cl)c2-c2nc(Nc3cnn(C4CCN(C5CCOCC5)CC4)c3)ncc21` (stereo not drawn) [IV-9a] yielded an EC50 [1] of less than 3000 nM.

Work on `CC1Cc2nn(C)c(-c3ccccc3Cl)c2-c2nc(Nc3ccn(C(C)C)n3)ncc21` (racemic) [Compound I-40, 9-(2-chlorophenyl)-5,8-dimethyl-N-(1-propane-2-ylpyrazol-3-yl)-5,6-dihydropyrazolo[3,4-h]quinazolin-2-amine] yielded an EC50 [1] of less than 3000 nM.

`Cc1cc(Nc2ncc3c(n2)-c2c(nn(C)c2-c2ccc(OC(F)F)cc2)CC3)nn1C` [Compound I-294] was tested, and the EC50 [1] was less than 3000 nM.

Molecule `COc1cc(C(=O)NC2CC(N3CCN(C)CC3)C2)ccc1Nc1ncc2c(n1)-c1c(nn(C)c1-c1ccccc1Cl)CC2` (stereo not drawn) [III-38] has an EC50 [1] of less than 3000 nM.

— US8735386B2, “Aminopyrazoloquinazolines” (Boehringer Ingelheim International GmbH, priority 2010, dated 2014)
